The assay has as its target human KDR protein in HEK-293 cells (Homo sapiens (Human), UniProt P35968). In words: KDR Cell Assay (phospho-KDR in HEK-293 cells expressing inducible KDR). In kind it is cell-based. To be noted: pKDR Cell HEK 10% FBS IC50, HEK-293 cells expressing inducible KDR, VEGF stimulated. Summed up: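 HEK-293 cells with inducible human KDR were treated with compound for 1 h in DMEM (0.25% DMSO final), then lysed. Phospho-KDR was quantified by Meso Scale immunoassay, expressed as percent of control, and IC50 taken where a 4-parameter logistic fit crossed 50 POC.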

Structures can show the parent of a compound that is named as a salt.

Chain of human KDR protein in HEK-293 cells (P35968 20-1356): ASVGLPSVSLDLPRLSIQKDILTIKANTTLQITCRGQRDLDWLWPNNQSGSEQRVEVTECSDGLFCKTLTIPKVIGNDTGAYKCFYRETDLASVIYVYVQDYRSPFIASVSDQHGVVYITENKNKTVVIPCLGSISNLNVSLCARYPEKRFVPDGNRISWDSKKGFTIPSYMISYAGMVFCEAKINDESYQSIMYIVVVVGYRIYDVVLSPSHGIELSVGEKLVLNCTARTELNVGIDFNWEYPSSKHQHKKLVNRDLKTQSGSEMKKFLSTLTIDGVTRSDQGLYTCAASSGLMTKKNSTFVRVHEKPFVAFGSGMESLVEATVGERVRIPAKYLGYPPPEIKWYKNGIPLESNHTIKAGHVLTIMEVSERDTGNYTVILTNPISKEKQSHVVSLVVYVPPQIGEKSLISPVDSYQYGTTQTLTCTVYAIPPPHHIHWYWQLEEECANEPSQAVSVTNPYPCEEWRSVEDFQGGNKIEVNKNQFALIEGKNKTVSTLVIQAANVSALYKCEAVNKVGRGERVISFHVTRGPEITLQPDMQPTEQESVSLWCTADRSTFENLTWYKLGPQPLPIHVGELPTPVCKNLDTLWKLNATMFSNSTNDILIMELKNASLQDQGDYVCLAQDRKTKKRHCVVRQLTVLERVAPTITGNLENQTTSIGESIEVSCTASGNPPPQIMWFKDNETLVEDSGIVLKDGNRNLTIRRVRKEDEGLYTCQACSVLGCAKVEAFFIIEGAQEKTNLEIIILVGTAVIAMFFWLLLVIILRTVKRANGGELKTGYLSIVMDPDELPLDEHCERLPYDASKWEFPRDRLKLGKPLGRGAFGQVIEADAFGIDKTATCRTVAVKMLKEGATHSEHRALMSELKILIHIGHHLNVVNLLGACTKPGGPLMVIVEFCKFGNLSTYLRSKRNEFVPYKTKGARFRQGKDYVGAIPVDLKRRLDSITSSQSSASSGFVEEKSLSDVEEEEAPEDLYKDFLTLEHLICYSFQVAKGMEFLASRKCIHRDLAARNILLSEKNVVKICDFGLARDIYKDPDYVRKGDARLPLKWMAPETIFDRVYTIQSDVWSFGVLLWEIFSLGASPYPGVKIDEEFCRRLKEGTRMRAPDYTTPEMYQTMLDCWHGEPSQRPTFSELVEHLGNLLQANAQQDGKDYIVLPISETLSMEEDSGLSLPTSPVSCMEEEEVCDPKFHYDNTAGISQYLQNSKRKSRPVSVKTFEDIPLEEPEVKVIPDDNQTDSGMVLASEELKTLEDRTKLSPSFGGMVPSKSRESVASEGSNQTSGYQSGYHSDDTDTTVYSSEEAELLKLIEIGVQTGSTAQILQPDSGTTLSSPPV

`Cn1cc(-c2cc(-c3ccc(N4CCN(C(=O)[C@H]5CCCO5)CC4)nc3)c3c(C#N)cnn3c2)cn1` [Example 58, (R)-6-(1-methyl-1H-pyrazol-4-yl)-4-(6-(4-(tetrahydrofuran-2-carbonyl)piperazin-1-yl)pyridin-3-yl)pyrazolo[1,5-a]pyridine-3-carbonitrile]: the IC50 (10% FBS) came out at 439 nM. In other words, the sub-micromolar range.

Regarding `Cn1cc(-c2cc(-c3ccc(N4CCN(C(=O)CC5CCOC5)CC4)nc3)c3c(C#N)cnn3c2)cn1` (stereo not drawn) [Example 62, 6-(1-methyl-1H-pyrazol-4-yl)-4-(6-(4-(2-(tetrahydrofuran-3-yl)acetyl)piperazin-1-yl)pyridin-3-yl)pyrazolo[1,5-a]pyridine-3-carbonitrile], the midpoint of inhibition (10% FBS), the IC50, lay at 1300 nM.

`Cn1cc(-c2cc(-c3ccc(N4CCN(Cc5ccc(Cl)cc5)CC4)nc3)c3c(C#N)cnn3c2)cn1` [Example 425, 4-(6-(4-(4-chlorobenzyl)piperazin-l-yl)pyridin-3-yl)-6-(1-methyl-1H-pyrazol-4-yl)pyrazolo[1,5-a]pyridine-3-carbonitrile] gave an IC50 of 916 nM.

Take `C[C@H]([C@H](O)c1ccccc1)N1CCN(c2ccc(-c3cc(-c4cnn(C)c4)cn4ncc(C#N)c34)cn2)CC1` [Example 147, 4-(6-(4-((1R,2R)-1-hydroxy-1-phenylpropan-2-yl)piperazin-1-yl)pyridin-3-yl)-6-(1-methyl-1H-pyrazol-4-yl)pyrazolo[1,5-a]pyridine-3-carbonitrile]: where the note is “10% FBS”, the IC50 turned out to be 1290 nM.

Where the note is “10% FBS”, `CN(C)CC(=O)N1CC2CCC(C1)N2c1ccc(-c2cc(-c3cnn(C)c3)cn3ncc(Cl)c23)cn1` [Example 336, 1-(8-(5-(3-chloro-6-(1-methyl-1H-pyrazol-4-yl)pyrazolo[1,5-a]pyridin-4-yl)pyridin-2-yl)-3,8-diazabicyclo[3.2.1]octan-3-yl)-2-(dimethylamino)ethanone] yielded a concentration for half-maximal inhibition (IC50) of 614 nM. Compared with the last compound, the IC50 is about 2.1-fold lower.

On to `Cn1cc(-c2cc(-c3ccc(N4CC[C@@H](C(=O)NCCC(F)(F)F)C4)nc3)c3c(C#N)cnn3c2)cn1` [Example 259, (R)-1-(5-(3-cyano-6-(1-methyl-1H-pyrazol-4-yl)pyrazolo[1,5-a]pyridin-4-yl)pyridin-2-yl)-N-(3,3,3-trifluoropropyl)pyrrolidine-3-carboxamide], for which, where the note is “10% FBS”, it took 2770 nM to reach half-maximal inhibition (IC50).

For the setting “10% FBS”, `Cn1cc(-c2cc(-c3ccc(N4CCN(C(=O)[C@H](O)c5ccccc5)CC4)nc3)c3c(Cl)cnn3c2)cn1` [Example 327, (R)-1-(4-(5-(3-chloro-6-(1-methyl-1H-pyrazol-4-yl)pyrazolo[1,5-a]pyridin-4-yl)pyridin-2-yl)piperazin-1-yl)-2-hydroxy-2-phenylethanone] showed an IC50 of 606 nM.

For `Cc1ccc(CC(=O)N2CCN(c3ccc(-c4cc(-c5cnn(C)c5)cn5ncc(C#N)c45)cn3)CC2)cn1` [Example 19, 6-(1-methyl-1H-pyrazol-4-yl)-4-(6-(4-(2-(6-methylpyridin-3-yl)acetyl)piperazin-1-yl)pyridin-3-yl)pyrazolo[1,5-a]pyridine-3-carbonitrile], the IC50 (10% FBS) came to 546 nM.

In the case of `Cn1cc(-c2cc(-c3ccc(N4C5CC4CN(Cc4ccccc4)C5)nc3)c3c(C#N)cnn3c2)cn1` [Example 490, 4-(6-(3-benzyl-3,6-diazabicyclo[3.1.1]heptan-6-yl)pyridin-3-yl)-6-(1-methyl-1H-pyrazol-4-yl)pyrazolo[1,5-a]pyridine-3-carbonitrile], it took 619 nM to reach half-maximal inhibition (IC50).

`Cn1cc(-c2cc(-c3ccc(N4CCN(Cc5c(F)cccc5F)CC4)nc3)c3c(C#N)cnn3c2)cn1` [Example 441, 4-(6-(4-(2,6-difluorobenzyl)piperazin-1-yl)pyridine-3-yl)-6-(1-methyl-1H-pyrazol-4-yl)pyrazolo[1,5-a]pyridine-3-carbonitrile] had an IC50 of 576 nM. This IC50 and that of the compound before are within 1.5-fold of each other.

`COC(=O)N1CCN(c2ccc(-c3cc(-c4cnn(C)c4)cn4ncc(C#N)c34)cc2)CC1` [Example 298, Methyl 4-(4-(3-cyano-6-(1-methyl-1H-pyrazol-4-yl)pyrazolo[1,5-a]pyridin-4-yl)phenyl)piperazine-1-carboxylate]: under “10% FBS”, the midpoint of inhibition, the IC50, lay at 1830 nM.

Take `Cc1cccnc1CN1CCN(c2ccc(-c3cc(-c4cnn(C)c4)cn4ncc(C#N)c34)cn2)CC1` [Example 438, 6-(1-methyl-1H-pyrazol-4-yl)-4-(6-(4-((3-methylpyridin-2-yl)methyl)piperazin-1-yl)pyridine-3-yl)pyrazolo[1,5-a]pyridine-3-carbonitrile]: half-maximal inhibition (IC50) was put at 1990 nM.

Where the note is “10% FBS”, `Cn1cc(-c2cc(-c3ccc(N4CCN(CC(O)c5ccc(F)cc5)CC4)nc3)c3c(C#N)cnn3c2)cn1` (stereo not drawn) [Example 164, 4-(6-(4-(2-(4-fluorophenyl)-2-hydroxyethyl)piperazin-1-yl)pyridin-3-yl)-6-(1-methyl-1H-pyrazol-4-yl)pyrazolo[1,5-a]pyridine-3-carbonitrile] registered an IC50 of 73.6 nM.

With `Cn1cc(-c2cc(-c3ccc(N4CCN(C(=O)[C@@H](O)Cc5ccccc5)CC4)nc3)c3c(C#N)cnn3c2)cn1` [Example 4], the midpoint of inhibition (10% FBS), the IC50, lay at 328 nM.

Turning to `Cn1cc(-c2cc(-c3ccc(N4CCN(C(=O)C5CCCC5)CC4)nc3)c3c(C#N)cnn3c2)cn1` [Example 21, 4-(6-(4-(cyclopentanecarbonyl)piperazin-1-yl)pyridin-3-yl)-6-(1-methyl-1H-pyrazol-4-yl)pyrazolo[1,5-a]pyridine-3-carbonitrile], the IC50 (10% FBS) worked out at 540 nM.

Compound `Cn1cc(-c2cc(-c3ccc(N4CCC(N5CCCC5=O)CC4)nc3)c3c(C#N)cnn3c2)cn1` [Example 189, 6-(1-methyl-1H-pyrazol-4-yl)-4-(6-(4-(2-oxopyrrolidin-1-yl)piperidin-1-yl)pyridin-3-yl)pyrazolo[1,5-a]pyridine-3-carbonitrile] yielded an IC50 (10% FBS) of 255 nM.

As to `CO[C@@H](C(=O)N1CCN(c2ncc(-c3cc(-c4cnn(C)c4)cn4ncc(C#N)c34)cn2)CC1)c1ccccc1` [Example 284, (R)-4-(2-(4-(2-methoxy-2-phenylacetyl)piperazin-1-yl)pyrimidin-5-yl)-6-(1-methyl-1H-pyrazol-4-yl)pyrazolo[1,5-a]pyridine-3-carbonitrile], where the note is “10% FBS”, it took 663 nM to reach half-maximal inhibition (IC50).

On to `Cn1cc(-c2cc(-c3ccc(N4CCC(NC(=O)[C@@H]5CCCO5)CC4)nc3)c3c(C#N)cnn3c2)cn1` [Example 182, (5)-N-(1-(5-(3-cyano-6-(1-methyl-1H-pyrazol-4-yl)pyrazolo[1,5-a]pyridin-4-yl)pyridin-2-yl)piperidin-4-yl)tetrahydrofuran-2-carboxamide], for which the IC50 (10% FBS) is 563 nM.

In the case of `Cn1cc(-c2cc(-c3ccc(C4CCN(C(=O)CC(C)(C)C)CC4)cc3)c3c(C#N)cnn3c2)cn1` [Example 302, 4-(4-(1-(3,3-dimethylbutanoyl)piperidin-4-yl)phenyl)-6-(1-methyl-1H-pyrazol-4-yl)pyrazolo[1,5-a]pyridine-3-carbonitrile], inhibition (10% FBS) was half-maximal at 2990 nM (IC50). Compared with the last compound, the IC50 is about 5.3-fold higher.

As to `CC(C)NC(=O)[C@@H]1CN(c2ccc(-c3cc(-c4cnn(C)c4)cn4ncc(C#N)c34)cn2)CCO1` [Example 228, (S)-4-(5-(3-cyano-6-(1-methyl-1H-pyrazol-4-yl)pyrazolo[1,5-a]pyridin-4-yl)pyridin-2-yl)-N-isopropylmorpholine-2-carboxamide], inhibition (10% FBS) was half-maximal at 4530 nM (IC50). Compared with the last compound, the IC50 is about 1.5-fold higher.

As for `CO[C@H]1CCN(C(=O)N2CCN(c3ccc(-c4cc(-c5cnn(C)c5)cn5ncc(C#N)c45)cn3)CC2)C1` [Example 97, (S)-4-(6-(4-(3-methoxypyrrolidine-1-carbonyl)piperazin-1-yl)pyridin-3-yl)-6-(1-methyl-1H-pyrazol-4-yl)pyrazolo[1,5-a]pyridine-3-carbonitrile], for the setting “10% FBS”, the IC50 was found to be 751 nM.

The compound `Cn1cc(-c2cc(-c3ccc(N4CCC5(CNC5)C4)nc3)c3c(C#N)cnn3c2)cn1` [Example 549, 4-(6-(2,6-diazaspiro[3.4]octan-6-yl)pyridin-3-yl)-6-(1-methyl-1H-pyrazol-4-yl)pyrazolo[1,5-a]pyridine-3-carbonitrile dihydrochloride] showed an IC50 of 986 nM.

For `CN(C)c1ccc(CN2CCN(c3ccc(-c4cc(-c5cnn(C)c5)cn5ncc(C#N)c45)cn3)CC2)cc1` [Example 461, 4-(6-(4-(4-(dimethylamino)benzyl)piperazin-1-yl)pyridin-3-yl)-6-(1-methyl-1H-pyrazol-4-yl)pyrazolo[1,5-a]pyridine-3-carbonitrile], the IC50 was determined as 129 nM.

Compound `Cc1cnc(CN2CCN(c3ccc(-c4cc(-c5cnn(C)c5)cn5ncc(C#N)c45)cn3)CC2)cn1` [Example 444, 6-(1-methyl-1H-pyrazol-4-yl)-4-(6-(4-((5-methylpyrazin-2-yl)methyl)piperazin-1-yl)pyridin-3-yl)pyrazolo[1,5-a]pyridine-3-carbonitrile] registered an IC50 of 1290 nM.

Consider `CCC1CCN(C(=O)N2CCN(c3ccc(-c4cc(-c5cnn(C)c5)cn5ncc(C#N)c45)cn3)CC2)C1` (stereo not drawn) [Example 389, 4-(6-(4-(3-ethylpyrrolidine-1-carbonyl)piperazin-1-yl)pyridin-3-yl)-6-(1-methyl-1H-pyrazol-4-yl)pyrazolo[1,5-a]pyridine-3-carbonitrile], for which the IC50 was determined as 857 nM.

Where the note is “10% FBS”, `Cn1cc(-c2cc(-c3ccc(N4CCN(C(=O)C5(c6ccccn6)CC5)CC4)nc3)c3c(C#N)cnn3c2)cn1` [Example 359, 6-(1-methyl-1H-pyrazol-4-yl)-4-(6-(4-(1-(pyridine-2-yl)cyclopropane-1-carbonyl)piperazin-1-yl)pyridin-3-yl)pyrazolo[1,5-a]pyridine-3-carbonitrile bis(2,2,2-trifluoroacetate)] came in with an IC50 of 910 nM.

For `Cn1cc(-c2cc(-c3ccc(N4CCN(C(=O)c5cnccn5)CC4)nc3)c3c(C#N)cnn3c2)cn1` [Example 38, 6-(1-methyl-1H-pyrazol-4-yl)-4-(6-(4-(pyrazine-2-carbonyl)piperazin-1-yl)pyridin-3-yl)pyrazolo[1,5-a]pyridine-3-carbonitrile 2,2,2-trifluoroacetate], under “10% FBS”, the IC50 was determined as 396 nM.

A word on the IC50: it is the midpoint of a concentration-inhibition curve. A high value points to weaker potency in that assay.

Source of the values: patent publication US10023570B2 (Array BioPharma, Inc., priority 2015, dated 2018).
